From patent US20240174618A1, “SUBSTITUTED (2-HETEROARYLOXYPHENYL)SULFONATES, SALTS THEREOF AND THEIR USE AS HERBICIDAL AGENTS” (Bayer Aktiengesellschaft, priority 2021, published 2024)

Legend:
Format in all cases: in vivo
[1] = system: Stellaria media (STEME); assay: A. Herbicidal pre-emergence efficacy, STEME
Text: (§1) Seeds of mono- and dicotyledonous weed plants were placed in plastic pots in sandy loam soil (doubly sown with one species each of mono- or dicotyledonous weed plants per pot) and covered with soil. The compounds of the invention, formulated in the form of wettable powders (WP) or as emulsion concentrates (EC), were then applied onto the surface of the covering soil as aqueous suspension or emulsion with addition of 0.5% additive at a water application rate of 600 liters per hectare (converted). After the treatment, the pots were placed in a greenhouse and kept under good growth conditions for the test plants. After about 3 weeks, the efficacy of the preparations was scored visually in comparison with untreated controls as percentages.
(§2) For example, • 100% efficacy=plants have died, • 0% efficacy=like untreated control plants.
(§3) Tables A1a to A12c below show the effects of selected compounds of the general formula (I) according to table 1 on various harmful plants at an application rate corresponding to 1280 g/ha or less, which were obtained by the experimental procedure mentioned above.

[2] = system: Setaria viridis (SETVI); assay: A. Herbicidal pre-emergence efficacy, SETVI
Text: as §1, §2, §3

[3] = system: Veronica persica (VERPE); assay: B. Herbicidal post-emergence efficacy, VERPE
Method: (§4) Seeds of mono- and dicotyledonous weed plants were placed in plastic pots in sandy loam soil (doubly sown with in each case one species of mono- or dicotyledonous weed plants per pot), covered with soil and cultivated in a greenhouse under controlled growth conditions. 2 to 3 weeks after sowing, the test plants were treated at the one-leaf stage. The compounds of the invention, formulated in the form of wettable powders (WP) or as emulsion concentrates (EC), were applied onto the green parts of the plants as aqueous suspension or emulsion with addition of 0.5% additive at a water application rate of 600 liters per hectare (converted). After the test plants had been kept in the greenhouse under optimum growth conditions for about 3 weeks, the activity of the preparations was rated visually in comparison to untreated controls.
(§5) For example, • 100% efficacy=plants have died, • 0% efficacy=like untreated control plants
(§6) Tables B1a to B12c below show the effects of selected inventive compounds of the general formula (I) according to table 1 on various harmful plants at an application rate corresponding to 1280 g/ha or less, which were obtained by the experimental procedure mentioned above.

[4] = system: Echinochloa crus-galli (ECHCG); assay: A. Herbicidal pre-emergence efficacy, ECHCG; details: 1280 g/ha; scored visually after about 3 weeks vs untreated controls
Text: as §1, §2, §3

[5] = system: Amaranthus retroflexus (AMARE); assay: A. Herbicidal pre-emergence efficacy, AMARE
Text: as §1, §2, §3

[6] = system: Lolium rigidum (LOLRI); assay: A. Herbicidal pre-emergence efficacy, LOLRI; details: dosage 1280 g/ha
Text: as §1, §2, §3

[7] = system: Poa annua (POAAN); assay: A. Herbicidal pre-emergence efficacy, POAAN
Text: as §1, §2, §3

[8] = system: Echinochloa crus-galli (ECHCG); assay: B. Herbicidal post-emergence efficacy, ECHCG; details: 1280 g/ha, rated visually after about 3 weeks
Method: as §4, §5, §6

[9] = system: Abutilon theophrasti (ABUTH); assay: B. Herbicidal post-emergence efficacy, ABUTH; details: rated visually after about 3 weeks
Method: as §4, §5, §6

[10] = system: Veronica persica (VERPE); assay: A. Herbicidal pre-emergence efficacy, VERPE
Text: as §1, §2, §3

[11] = system: Stellaria media (STEME); assay: B. Herbicidal post-emergence efficacy, STEME
Method: as §4, §5, §6

[12] = system: Matricaria inodora (MATIN); assay: A. Herbicidal pre-emergence efficacy, MATIN
Text: as §1, §2, §3

[13] = system: Digitaria sanguinalis (DIGSA); assay: A. Herbicidal pre-emergence efficacy, DIGSA; details: scored visually after about 3 weeks vs untreated controls
Text: as §1, §2, §3

[14] = system: Kochia scoparia (KCHSC); assay: A. Herbicidal pre-emergence efficacy, KCHSC; details: pre-emergence
Text: as §1, §2, §3

[15] = system: Amaranthus retroflexus (AMARE); assay: B. Herbicidal post-emergence efficacy, AMARE
Method: as §4, §5, §6

[16] = system: Kochia scoparia (KCHSC); assay: B. Herbicidal post-emergence efficacy, KCHSC; details: for Post-emergence efficacy against KCHSC: 1280 g/ha; for Post-emergence efficacy against KCHSC in %: rated visually after about 3 weeks
Method: as §4, §5, §6

[17] = system: Poa annua (POAAN); assay: B. Herbicidal post-emergence efficacy, POAAN; details: 1280 g/ha
Method: as §4, §5, §6

[18] = system: Abutilon theophrasti (ABUTH); assay: A. Herbicidal pre-emergence efficacy, ABUTH; details: 1280 g/ha; scored visually after about 3 weeks vs untreated controls
Text: as §1, §2, §3

[19] = system: Setaria viridis (SETVI); assay: B. Herbicidal post-emergence efficacy, SETVI; details: 1280 g/ha
Method: as §4, §5, §6

[20] = system: Digitaria sanguinalis (DIGSA); assay: B. Herbicidal post-emergence efficacy, DIGSA; details: rated visually after about 3 weeks
Method: as §4, §5, §6

## O=S(=O)(CCC1CC1(Cl)Cl)Oc1c(F)cccc1Oc1ncc(Cl)cn1 (centres unmarked) [Example I-51]
[1]; dosage 320 g/ha
  Pre-emergence efficacy against STEME: 90%
[1]; dosage 1280 g/ha
  Pre-emergence efficacy against STEME: 100%
[2]; dosage 320 g/ha
  Pre-emergence efficacy against SETVI: 90%
[2]; dosage 1280 g/ha
  Pre-emergence efficacy against SETVI: 90%
[3]; 1280 g/ha
  Post-emergence efficacy against VERPE: 90%
[4]
  Pre-emergence efficacy against ECHCG: 90%
[5]; 80 g/ha
  Pre-emergence efficacy against AMARE in %: 90%
[5]; 320 g/ha
  Pre-emergence efficacy against AMARE in %: 100%
[5]; 1280 g/ha
  Pre-emergence efficacy against AMARE in %: 100%
[6]
  Pre-emergence efficacy against LOLRI: 90%
[7]; dosage 1280 g/ha
  Pre-emergence efficacy against POAAN: 100%
[8]
  Post-emergence efficacy against ECHCG in %: 90%
[9]; 320 g/ha
  Post-emergence efficacy against ABUTH in %: 90%
[9]; 1280 g/ha
  Post-emergence efficacy against ABUTH in %: 90%
[10]; 1280 g/ha
  Pre-emergence efficacy against VERPE in %: 100%
[11]; 80 g/ha
  Post-emergence efficacy against STEME: 90%
[11]; 320 g/ha
  Post-emergence efficacy against STEME: 90%
[11]; 1280 g/ha
  Post-emergence efficacy against STEME: 90%
[12]; 320 g/ha, scored visually after about 3 weeks vs untreated controls
  Pre-emergence efficacy against MATIN: 90%
[12]; pre-emergence, dosage 1280 g/ha
  Pre-emergence efficacy against MATIN: 90%
[13]; 320 g/ha
  Pre-emergence efficacy against DIGSA: 90%
[13]; 1280 g/ha
  Pre-emergence efficacy against DIGSA: 100%
[14]; dosage 1280 g/ha
  Pre-emergence efficacy against KCHSC: 100%
[15]; 80 g/ha
  Post-emergence efficacy against AMARE: 90%
[15]; 320 g/ha
  Post-emergence efficacy against AMARE: 90%
[15]; 1280 g/ha
  Post-emergence efficacy against AMARE: 90%
[16]
  Post-emergence efficacy against KCHSC: 90%
[17]
  Post-emergence efficacy against POAAN: 90%

## N#Cc1cccc(Oc2ncc(Cl)cn2)c1OS(=O)(=O)CC1CC(F)(F)C1 [Example I-79]
[1]; dosage 320 g/ha
  Pre-emergence efficacy against STEME: 90%
[1]; dosage 1280 g/ha
  Pre-emergence efficacy against STEME: 100%
[2]; dosage 320 g/ha
  Pre-emergence efficacy against SETVI: 90%
[2]; dosage 1280 g/ha
  Pre-emergence efficacy against SETVI: 100%
[3]; 80 g/ha
  Post-emergence efficacy against VERPE: 100%
[3]; 320 g/ha
  Post-emergence efficacy against VERPE: 100%
[3]; 1280 g/ha
  Post-emergence efficacy against VERPE: 100%
[4]
  Pre-emergence efficacy against ECHCG: 90%
[5]; 80 g/ha
  Pre-emergence efficacy against AMARE in %: 90%
[5]; 320 g/ha
  Pre-emergence efficacy against AMARE in %: 100%
[5]; 1280 g/ha
  Pre-emergence efficacy against AMARE in %: 100%
[7]; dosage 1280 g/ha
  Pre-emergence efficacy against POAAN: 90%
[8]
  Post-emergence efficacy against ECHCG in %: 100%
[18]
  Pre-emergence efficacy against ABUTH: 90%
[19]
  Post-emergence efficacy against SETVI: 90%
[9]; 320 g/ha
  Post-emergence efficacy against ABUTH in %: 90%
[9]; 1280 g/ha
  Post-emergence efficacy against ABUTH in %: 100%
[10]; 320 g/ha
  Pre-emergence efficacy against VERPE in %: 100%
[10]; 1280 g/ha
  Pre-emergence efficacy against VERPE in %: 100%
[20]; 320 g/ha
  Post-emergence efficacy against DIGSA in %: 90%
[20]; 1280 g/ha
  Post-emergence efficacy against DIGSA in %: 100%
[11]; 80 g/ha
  Post-emergence efficacy against STEME: 90%
[11]; 320 g/ha
  Post-emergence efficacy against STEME: 100%
[11]; 1280 g/ha
  Post-emergence efficacy against STEME: 100%
[13]; 320 g/ha
  Pre-emergence efficacy against DIGSA: 100%
[13]; 1280 g/ha
  Pre-emergence efficacy against DIGSA: 100%
[14]; dosage 320 g/ha
  Pre-emergence efficacy against KCHSC: 90%
[14]; dosage 1280 g/ha
  Pre-emergence efficacy against KCHSC: 100%
[15]; 80 g/ha
  Post-emergence efficacy against AMARE: 90%
[15]; 320 g/ha
  Post-emergence efficacy against AMARE: 100%
[15]; 1280 g/ha
  Post-emergence efficacy against AMARE: 100%
[16]; 80 g/ha
  Post-emergence efficacy against KCHSC in %: 90%
[16]; 320 g/ha
  Post-emergence efficacy against KCHSC in %: 100%
[16]
  Post-emergence efficacy against KCHSC: 100%

## O=S(=O)(CCCC(F)(F)F)Oc1ccccc1Oc1ccc(Cl)cn1 [Example I-26]
[1]; dosage 1280 g/ha
  Pre-emergence efficacy against STEME: 90%
[2]; dosage 320 g/ha
  Pre-emergence efficacy against SETVI: 90%
[2]; dosage 1280 g/ha
  Pre-emergence efficacy against SETVI: 100%
[3]; 320 g/ha
  Post-emergence efficacy against VERPE: 90%
[3]; 1280 g/ha
  Post-emergence efficacy against VERPE: 90%
[4]
  Pre-emergence efficacy against ECHCG: 90%
[5]; 320 g/ha
  Pre-emergence efficacy against AMARE in %: 90%
[5]; 1280 g/ha
  Pre-emergence efficacy against AMARE in %: 100%
[7]; dosage 320 g/ha
  Pre-emergence efficacy against POAAN: 90%
[7]; dosage 1280 g/ha
  Pre-emergence efficacy against POAAN: 100%
[8]
  Post-emergence efficacy against ECHCG in %: 90%
[9]; 1280 g/ha
  Post-emergence efficacy against ABUTH in %: 90%
[10]; 1280 g/ha
  Pre-emergence efficacy against VERPE in %: 100%
[20]; 1280 g/ha
  Post-emergence efficacy against DIGSA in %: 90%
[11]; 1280 g/ha
  Post-emergence efficacy against STEME: 90%
[13]; 1280 g/ha
  Pre-emergence efficacy against DIGSA: 100%
[14]; dosage 1280 g/ha
  Pre-emergence efficacy against KCHSC: 90%
[15]; 320 g/ha
  Post-emergence efficacy against AMARE: 90%
[15]; 1280 g/ha
  Post-emergence efficacy against AMARE: 90%
[16]; 320 g/ha
  Post-emergence efficacy against KCHSC in %: 90%
[16]
  Post-emergence efficacy against KCHSC: 90%
